Experimental data published in publication PMC6397651 (Journal of pharmaceutical and biomedical analysis, 2018).
Values joined by “and” are separate entries in the source; they are usually repeats but may differ in a detail not shown here. Equal entries are not always repeated.

Assays:
[1] = Stability of analytes in rat plasma; type: in vitro ADME; conditions: for Autosampler stability, % Accuracy / Short-term Stability, % Accuracy: 20°C, 24 hr; for Short-term Stability, % Accuracy / Mean short term stability / Long-term Stability, % Accuracy / Freeze-Thaw Stability, % Accuracy / Mean freeze-thaw stability / Mean long term stability: rat plasma; for Mean short term stability / Auto sampler stability / Mean freeze-thaw stability / Mean long term stability: range over LQC and HQC; for Long-term Stability, % Accuracy / Freeze-Thaw Stability, % Accuracy: −70 ± 10°C; for Long-term Stability, % Accuracy: 30 days; for Freeze-Thaw Stability, % Accuracy: three cycles
[2] = In-vivo pharmacokinetic study in rats: passive cannabis smoke inhalation; conditions: for CL/F (apparent clearance): Rimonabant 3 mg/kg i.p.
[3] = THC, inhalation, 50 min smoke exposure, Wistar rats
[4] = male, Wistar, rat, plasma, inhaled or intranasal, 0.05 mg/kg
[5] = male, Wistar, rat, plasma, ip, 3 mg/kg

SMILES: CCCCCc1cc(O)c2c(c1)OC(C)(C)[C@@H]1CCC(C)=C[C@@H]21 [THC, delta-9-tetrahydrocannabinol]
- Autosampler stability, % Accuracy ([1]; HQC 80 ng/mL): 99.97%
- Autosampler stability, % Accuracy ([1]; LQC 0.3 ng/mL): 105.30%
- Short-term Stability, % Accuracy ([1]; HQC 80 ng/mL): 104.40%
- Short-term Stability, % Accuracy ([1]; LQC 0.3 ng/mL): 103.20%
- Mean short term stability [1]: 103.20–104.40%
- Long-term Stability, % Accuracy ([1]; HQC 80 ng/mL): 97.20%
- Long-term Stability, % Accuracy ([1]; LQC 0.3 ng/mL): 108.30%
- Freeze-Thaw Stability, % Accuracy ([1]; HQC 80 ng/mL): 109.20%
- Freeze-Thaw Stability, % Accuracy ([1]; LQC 0.3 ng/mL): 112.80%
- CL (clearance) [2, 3]: 1.1 ± 0.26 L/h
- Vss (volume of distribution at steady state) [2, 3]: 3.9 ± 2.07 L
- AUC(0-inf) [2, 4]: 13.9 ± 3.8 ng·h/mL
- AUC(0-t) [2, 4]: 12.2 ± 3 ng·h/mL
- half-life [2, 4]: 3.7 ± 1.3 h
- AUC(0-inf) ([2]; male, Wistar, rat, plasma, inhaled, 0.05 mg/kg): 13.9 ng·h/mL

SMILES: C=C(C)[C@@H]1CCC(C)=C[C@H]1c1c(O)cc(CCCCC)cc1O [CBD, cannabidiol]
- Autosampler stability, % Accuracy ([1]; HQC 80 ng/mL): 96.80%
- Autosampler stability, % Accuracy ([1]; LQC 0.3 ng/mL): 103.60%
- Auto sampler stability [1]: 96.80–103.60%
- Short-term Stability, % Accuracy ([1]; HQC 80 ng/mL): 99.60%
- Short-term Stability, % Accuracy ([1]; LQC 0.3 ng/mL): 97.50%
- Mean freeze-thaw stability [1]: 105.21–108.50%
- Mean long term stability [1]: 103.30–106.50%
- Mean short term stability [1]: 97.50–99.60%
- Long-term Stability, % Accuracy ([1]; HQC 80 ng/mL): 103.30%
- Long-term Stability, % Accuracy ([1]; LQC 0.3 ng/mL): 106.50%
- Freeze-Thaw Stability, % Accuracy ([1]; HQC 80 ng/mL): 105.21%
- Freeze-Thaw Stability, % Accuracy ([1]; LQC 0.3 ng/mL): 108.50%

SMILES: Cc1c(C(=O)NN2CCCCC2)nn(-c2ccc(Cl)cc2Cl)c1-c1ccc(Cl)cc1 [Rimonabant, rimonabant]
- Autosampler stability, % Accuracy ([1]; HQC 80 ng/mL): 102.30%
- Autosampler stability, % Accuracy ([1]; LQC 0.3 ng/mL): 104.50%
- Auto sampler stability [1]: 102.30–104.50%
- Short-term Stability, % Accuracy ([1]; HQC 80 ng/mL): 104.30%
- Short-term Stability, % Accuracy ([1]; LQC 0.3 ng/mL): 95.70%
- Mean freeze-thaw stability [1]: 106.25–109.50%
- Mean long term stability [1]: 96.90–99.40%
- Mean short term stability [1]: 95.70–104.30%
- Long-term Stability, % Accuracy ([1]; HQC 80 ng/mL): 99.40%
- Long-term Stability, % Accuracy ([1]; LQC 0.3 ng/mL): 96.90%
- Freeze-Thaw Stability, % Accuracy ([1]; HQC 80 ng/mL): 109.50%
- Freeze-Thaw Stability, % Accuracy ([1]; LQC 0.3 ng/mL): 106.25%
- CL/F (apparent clearance) ([2]; Wistar rats): 2.0 L/h and 2.0 ± 0.3 L/h
- CL/F (apparent clearance) ([2]; Wistar rats, listed as rimonabant): 2 L/h
- AUC(0-inf) [2, 5]: 458 ng·h/mL
- AUC(0-t) [2, 5]: 308 ± 55 ng·h/mL
- Cmax [2, 5]: 88.6 ± 5.64 ng/mL
- Tmax [2, 5]: 0.2 ± 0.07 h
- half-life [2, 5]: 5.4 ± 0.85 h
